Assay results taken from patent US20230147588A1, “USE OF1,9-DECANEDIOL IN INHIBITING AMMONIA VOLATILIZATION FROM SOIL” (INSTITUTION OF SOIL SCIENCE, CHINESE ACADEMY OF SCIENCES, priority 2021, published 2023).

Columns and labels:
nitrification process = details: at low concentration; cited from earlier work
[1] = system: ammonia volatilization from soil; experiment: Soil column culture: effects of different inhibitors on ammonia volatilization from soil (Test Example 2); details: 21 days; for inhibition of ammonia volatilization from soil compared with the urea treatment (U): 200 mg N per kg soil; for order of inhibition effects of ammonia volatilization, from high to low: suffix -100 / -500 = addition in soil in mg/kg, with urea
From the text: A soil column culture method is used for the test (FIG. 1). The soil column is 18 centimeters (cm) in height and 5 cm in inner diameter, which is divided into a leak-proof layer, a soil-fertilizer mixed layer, a flooded layer, and an idle layer (also referred to as spare layer). A leak-proof pad and 1 cm thick quartz sand are placed in the leak-proof layer at a bottom of the soil column firstly to prevent soil leakage and simulate a real situation in the field, and then the experimental soil is added to the soil-fertilizer mixed layer, and after compaction, a bottom leaching switch is turned on and water is added to restore the soil activity. After one night of soil recovery activity, the bottom leaching switch is turned off, and the urea required for each treatment is mixed with 1,9-decanediol to prepare a mixed solution. The mixed solution is evenly applied to the soil-fertilizer mixture layer of the soil column, the water is added to maintain a flooded state, and the ammonia volatilization from soil is monitored for 21 consecutive days.
2.1 Test Soil: The Same as Test Example 1
2.2 test reagent: 1, 9-decanediol, the same as test example 1, dicyandiamide (DCD, C2H4N4), linolenic acid (LN, […]) and methyl 3-(4-hydroxyphenyl)propionate (MHPP, C10H12O3) are purchased from Sigma.
2.3 experimental treatments: urea treatment (U), DCD + urea treatment, LN + urea treatment, MHPP + urea treatment, and 1,9-decanediol + urea treatment are set in experiments, in which an addition of DCD in soil is 20 mg/kg, and additions of LN, MHPP and 1,9-decanediol in soil each includes 100 mg/kg and 500 mg/kg, numbered as: DCD, LN-100, LN-500, MHPP-100, MHPP-500, 1,9-D-100, and 1,9-D-500. Each treatment is repeated three times. The nitrogen application rate is 200 mg nitrogen per kilogram soil.
2.4 Experimental Steps: The Same as the Test Example 1

[2] = system: ammonia volatilization from soil; experiment: Soil column culture: effects of 1,9-decanediol on ammonia volatilization from soil (Test Example 1); details: paddy soil column, 21 days
Method: 1.1 test soil: the test soil type is paddy soil, and the texture is sandy loam. It is collected from 0~20 centimeters (cm) topsoil of the experimental field in Yingtan City, Jiangxi Province (28°15′N, 116°55′E), sieved with a 2 millimeters (mm) sieve, and mixed evenly. See Table 1 for basic physical and chemical properties.
1.3 experimental treatment: urea treatment (U) and 1,9-decanediol + urea treatment are set in experiments. Among them, 1, 9-decanediol is added in soil at four levels of 100 mg/kg, 200 mg/kg, 500 mg/kg, and 1000 mg/kg, numbered as: 1, 9-D-100, 1, 9-D-200, 1, 9-D-500, and 1, 9-D-1000 respectively. Each treatment is repeated three times. The nitrogen application rate is 200 mg nitrogen per kilogram soil.
A soil column culture method is used for the test (FIG. 1). The soil column is 18 centimeters (cm) in height and 5 cm in inner diameter, which is divided into a leak-proof layer, a soil-fertilizer mixed layer, a flooded layer, and an idle layer (also referred to as spare layer). […] The mixed solution is evenly applied to the soil-fertilizer mixture layer of the soil column, the water is added to maintain a flooded state, and the ammonia volatilization from soil is monitored for 21 consecutive days.

[3] = paddy soil column, additions 100 and 500 mg/kg with urea

SMILES	inhibition of the nitrification process (nitrification process)	ammonia volatilization from soil compared with LN and MHPP treatments [1, 3]	inhibition of ammonia volatilization from soil compared with the urea treatment (U) [1, 3]	order of inhibition effects of ammonia volatilization, from high to low [1]	dose dependence of the inhibition effect of ammonia volatilization ([2]; 100 to 1000 mg/kg in soil with urea)	total amount of ammonia volatilization from soil compared with the treatment (U) without 1,9-decanediol ([2]; flooded, 100, 200, 500, 1000 mg/kg in soil with urea, 200 mg N per kg soil)
CC(O)CCCCCCCCO (centres unmarked) [1,9-decanediol]	can inhibit the nitrification process at low concentration	significantly lower than that from soil treated with LN and MHPP	can inhibit ammonia volatilization from soil	1,9-D-500 > LN-500 > 1,9-D-100 >MHPP-500 > LN-100 > MHPP-100	more obvious with the increase of the dosage	significantly reduce the total amount of ammonia volatilization from soil
COC(=O)CCc1ccc(O)cc1 [MHPP, methyl 3-(4-hydroxyphenyl)propionate, reference compound]	–	–	can inhibit ammonia volatilization from soil	1,9-D-500 > LN-500 > 1,9-D-100 >MHPP-500 > LN-100 > MHPP-100	–	–
